Measurements taken from ChEMBL document CHEMBL1140740, “Discovery of benzisoxazoles as potent inhibitors of chaperone heat shock protein 90” (J Med Chem, 2008).
Values after ≈ are worked out from the molar mass of the structure shown. Active and inactive are the calls of the source. The rule behind the calls is not given here.

How the values were obtained:
HCT-116 [1] = assay: Antiproliferation activity against human HCT116 cells; format: functional, cell-based
[2] = target: Heat shock protein HSP 90-alpha (Homo sapiens, UniProt P07900)
Description: Inhibition of human Hsp90-alpha by fluorescence polarization assay

SK-BR-3 [3] = assay: Antiproliferation activity against human SKBR3 cells; format: functional, cell-based
LNCaP [4] = assay: Antiproliferation activity against human LnCap cells; format: functional, cell-based
DU-145 = assay: Antiproliferation activity against human DU145 cells; format: functional, cell-based
[5] = Antiproliferation activity against human H157 cells; format: functional, cell-based; settings: NCI-H157
SK-BR-3 [6] = assay: Degradation of HER2 in human SKBR3 cells; format: functional, cell-based
LNCaP [7] = assay: Androgen receptor degradation in human LnCAP cells; format: functional, cell-based
HCT-116 [8] = assay: Antiproliferation activity against human HCT116 cells in presence of geldanamycin; format: functional, cell-based
[9] = target: Serine/threonine-protein kinase B-raf (Homo sapiens, UniProt P15056); assay: Inhibition of B-Raf
Chain of Serine/threonine-protein kinase B-raf (P15056 whole entry): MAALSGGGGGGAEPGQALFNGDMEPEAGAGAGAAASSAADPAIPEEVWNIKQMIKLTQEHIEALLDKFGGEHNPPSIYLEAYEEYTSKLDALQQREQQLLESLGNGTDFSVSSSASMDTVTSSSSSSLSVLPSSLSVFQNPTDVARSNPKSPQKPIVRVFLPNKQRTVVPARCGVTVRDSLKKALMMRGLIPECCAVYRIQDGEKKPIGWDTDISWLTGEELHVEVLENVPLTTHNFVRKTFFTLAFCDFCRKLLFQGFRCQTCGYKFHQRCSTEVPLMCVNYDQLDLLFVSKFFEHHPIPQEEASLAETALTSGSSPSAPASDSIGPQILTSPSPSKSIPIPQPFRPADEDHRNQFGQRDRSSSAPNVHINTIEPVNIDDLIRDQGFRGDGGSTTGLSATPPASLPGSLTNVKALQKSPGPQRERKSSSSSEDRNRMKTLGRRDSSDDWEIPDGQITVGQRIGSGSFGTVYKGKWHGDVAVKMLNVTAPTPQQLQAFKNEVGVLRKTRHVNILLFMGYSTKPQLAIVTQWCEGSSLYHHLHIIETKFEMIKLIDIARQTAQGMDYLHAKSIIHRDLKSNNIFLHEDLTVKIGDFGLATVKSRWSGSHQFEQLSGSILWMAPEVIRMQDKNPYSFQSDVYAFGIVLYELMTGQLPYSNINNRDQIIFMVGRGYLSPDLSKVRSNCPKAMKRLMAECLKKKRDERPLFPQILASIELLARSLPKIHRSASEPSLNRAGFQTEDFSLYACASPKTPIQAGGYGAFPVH

K562 [10] = assay: Upregulation of Hsp70 in K562 cells; format: functional, cell-based; settings: Homo sapiens
[11] = target: T1, Protein kinase C epsilon type (Homo sapiens, UniProt Q02156); assay: Inhibition of PKC epsilon
T1 sequence (Q02156 whole entry): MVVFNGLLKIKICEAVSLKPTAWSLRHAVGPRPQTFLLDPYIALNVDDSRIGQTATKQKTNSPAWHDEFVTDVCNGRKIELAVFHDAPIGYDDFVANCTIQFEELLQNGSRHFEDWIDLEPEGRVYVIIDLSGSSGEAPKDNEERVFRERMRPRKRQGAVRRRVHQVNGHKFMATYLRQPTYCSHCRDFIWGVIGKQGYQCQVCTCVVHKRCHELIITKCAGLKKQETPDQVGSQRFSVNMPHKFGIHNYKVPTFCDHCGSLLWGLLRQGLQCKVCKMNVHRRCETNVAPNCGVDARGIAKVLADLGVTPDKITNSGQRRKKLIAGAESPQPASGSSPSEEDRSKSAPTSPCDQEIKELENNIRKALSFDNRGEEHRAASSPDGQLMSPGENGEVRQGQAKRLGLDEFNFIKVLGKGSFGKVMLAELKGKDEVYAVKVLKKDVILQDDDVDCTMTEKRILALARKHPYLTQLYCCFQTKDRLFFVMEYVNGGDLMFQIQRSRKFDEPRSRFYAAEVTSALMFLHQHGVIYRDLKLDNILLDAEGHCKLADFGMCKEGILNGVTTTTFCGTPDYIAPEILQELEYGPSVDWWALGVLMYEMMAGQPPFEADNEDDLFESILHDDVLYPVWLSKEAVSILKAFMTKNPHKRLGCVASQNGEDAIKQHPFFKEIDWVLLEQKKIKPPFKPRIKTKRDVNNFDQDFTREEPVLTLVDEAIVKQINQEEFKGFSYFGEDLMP

[12] = target: Protein kinase C theta type (Homo sapiens, UniProt Q04759); assay: Inhibition of PKC theta
Chain of Protein kinase C theta type (Q04759 whole entry, canonical isoform): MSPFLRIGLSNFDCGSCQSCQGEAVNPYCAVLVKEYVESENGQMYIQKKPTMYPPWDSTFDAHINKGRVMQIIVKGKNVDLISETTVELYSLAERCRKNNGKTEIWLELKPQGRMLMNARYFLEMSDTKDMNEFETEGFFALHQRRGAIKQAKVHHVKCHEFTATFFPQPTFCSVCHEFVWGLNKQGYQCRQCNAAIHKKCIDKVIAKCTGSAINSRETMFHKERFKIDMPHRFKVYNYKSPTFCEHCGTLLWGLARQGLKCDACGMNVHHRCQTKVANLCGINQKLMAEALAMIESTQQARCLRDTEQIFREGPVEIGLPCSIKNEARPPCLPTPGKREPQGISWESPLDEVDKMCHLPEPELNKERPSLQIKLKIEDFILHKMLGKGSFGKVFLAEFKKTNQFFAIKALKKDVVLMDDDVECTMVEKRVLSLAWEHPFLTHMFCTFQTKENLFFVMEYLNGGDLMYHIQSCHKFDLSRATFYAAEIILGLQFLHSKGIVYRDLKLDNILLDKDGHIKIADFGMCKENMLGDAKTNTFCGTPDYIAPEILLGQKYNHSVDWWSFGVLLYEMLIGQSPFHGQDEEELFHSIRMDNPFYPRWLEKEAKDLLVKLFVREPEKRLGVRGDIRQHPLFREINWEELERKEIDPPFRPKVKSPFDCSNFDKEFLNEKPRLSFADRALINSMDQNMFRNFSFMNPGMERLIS

[13] = target: Phosphatidylinositol 4,5-bisphosphate 3-kinase catalytic subunit alpha isoform (Homo sapiens, UniProt P42336); assay: Inhibition of P13K alpha
Chain of Phosphatidylinositol 4,5-bisphosphate 3-kinase catalytic subunit alpha isoform (P42336 whole entry, canonical isoform): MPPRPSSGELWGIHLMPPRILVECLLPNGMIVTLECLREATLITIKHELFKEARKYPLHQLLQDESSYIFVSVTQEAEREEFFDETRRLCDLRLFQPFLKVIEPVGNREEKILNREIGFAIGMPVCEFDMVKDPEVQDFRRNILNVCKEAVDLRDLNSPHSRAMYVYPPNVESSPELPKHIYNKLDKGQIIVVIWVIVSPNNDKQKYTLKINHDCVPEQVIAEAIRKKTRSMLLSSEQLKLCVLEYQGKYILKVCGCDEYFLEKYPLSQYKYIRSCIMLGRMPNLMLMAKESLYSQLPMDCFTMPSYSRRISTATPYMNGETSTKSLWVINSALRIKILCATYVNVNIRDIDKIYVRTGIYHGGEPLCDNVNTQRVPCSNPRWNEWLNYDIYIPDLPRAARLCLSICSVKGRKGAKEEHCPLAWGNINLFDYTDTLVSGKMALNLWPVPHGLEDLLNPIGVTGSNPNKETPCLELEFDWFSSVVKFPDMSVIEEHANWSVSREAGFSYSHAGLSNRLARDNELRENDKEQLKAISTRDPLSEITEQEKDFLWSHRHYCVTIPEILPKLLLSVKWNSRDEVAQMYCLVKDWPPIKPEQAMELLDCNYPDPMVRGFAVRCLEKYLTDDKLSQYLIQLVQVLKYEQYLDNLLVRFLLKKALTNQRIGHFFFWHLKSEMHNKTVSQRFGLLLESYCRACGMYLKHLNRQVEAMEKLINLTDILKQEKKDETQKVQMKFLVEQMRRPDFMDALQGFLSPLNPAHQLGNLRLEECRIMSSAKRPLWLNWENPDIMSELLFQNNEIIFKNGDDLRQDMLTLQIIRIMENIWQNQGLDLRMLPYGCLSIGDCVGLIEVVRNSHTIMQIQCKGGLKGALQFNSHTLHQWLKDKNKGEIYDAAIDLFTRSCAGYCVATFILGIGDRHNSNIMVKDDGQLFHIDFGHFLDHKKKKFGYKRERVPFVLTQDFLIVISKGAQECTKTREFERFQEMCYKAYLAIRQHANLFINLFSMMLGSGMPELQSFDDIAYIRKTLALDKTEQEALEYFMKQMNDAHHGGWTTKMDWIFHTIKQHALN

[14] = target: MAP kinase-activated protein kinase 2 (Homo sapiens, UniProt P49137); assay: Inhibition of MK2
Chain of MAP kinase-activated protein kinase 2 (P49137 whole entry): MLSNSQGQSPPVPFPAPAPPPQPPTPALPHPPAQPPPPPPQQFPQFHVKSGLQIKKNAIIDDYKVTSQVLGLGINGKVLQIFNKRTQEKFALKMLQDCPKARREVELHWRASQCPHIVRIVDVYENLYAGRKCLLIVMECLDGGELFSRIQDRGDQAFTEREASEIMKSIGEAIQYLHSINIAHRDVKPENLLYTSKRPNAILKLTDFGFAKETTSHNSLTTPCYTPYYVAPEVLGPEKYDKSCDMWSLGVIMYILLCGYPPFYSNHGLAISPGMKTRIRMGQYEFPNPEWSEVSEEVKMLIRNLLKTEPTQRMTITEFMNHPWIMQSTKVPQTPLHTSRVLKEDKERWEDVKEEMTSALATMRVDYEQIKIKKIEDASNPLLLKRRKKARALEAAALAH

[15] = target: T2, Inhibitor of nuclear factor kappa-B kinase subunit beta (Homo sapiens, UniProt O14920); assay: Inhibition of IKK2
T2 sequence (O14920 whole entry): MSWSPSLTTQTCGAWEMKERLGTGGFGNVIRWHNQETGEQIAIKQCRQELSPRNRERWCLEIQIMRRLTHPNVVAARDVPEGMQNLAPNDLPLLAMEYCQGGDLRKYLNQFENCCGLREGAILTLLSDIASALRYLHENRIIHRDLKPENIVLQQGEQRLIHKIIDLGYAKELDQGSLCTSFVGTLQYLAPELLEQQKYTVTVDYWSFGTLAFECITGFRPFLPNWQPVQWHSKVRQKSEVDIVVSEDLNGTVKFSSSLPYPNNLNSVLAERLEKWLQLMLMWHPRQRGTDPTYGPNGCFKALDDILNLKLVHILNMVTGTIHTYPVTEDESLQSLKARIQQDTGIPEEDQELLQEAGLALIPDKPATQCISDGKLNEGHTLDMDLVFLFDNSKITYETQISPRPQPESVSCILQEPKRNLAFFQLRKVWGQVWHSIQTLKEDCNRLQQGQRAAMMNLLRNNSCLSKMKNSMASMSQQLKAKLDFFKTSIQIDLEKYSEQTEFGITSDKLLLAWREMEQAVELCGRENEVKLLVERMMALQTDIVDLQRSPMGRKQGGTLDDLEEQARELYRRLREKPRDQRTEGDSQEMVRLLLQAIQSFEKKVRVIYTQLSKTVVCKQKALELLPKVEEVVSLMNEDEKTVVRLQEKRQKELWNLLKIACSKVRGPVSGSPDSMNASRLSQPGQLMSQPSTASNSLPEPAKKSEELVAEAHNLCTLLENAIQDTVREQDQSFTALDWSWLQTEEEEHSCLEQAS

Activin receptor type-2B = Activin receptor type-2B (Homo sapiens, UniProt Q13705); assay: Inhibition of ActR2B
Chain of Activin receptor type-2B (Q13705 whole entry): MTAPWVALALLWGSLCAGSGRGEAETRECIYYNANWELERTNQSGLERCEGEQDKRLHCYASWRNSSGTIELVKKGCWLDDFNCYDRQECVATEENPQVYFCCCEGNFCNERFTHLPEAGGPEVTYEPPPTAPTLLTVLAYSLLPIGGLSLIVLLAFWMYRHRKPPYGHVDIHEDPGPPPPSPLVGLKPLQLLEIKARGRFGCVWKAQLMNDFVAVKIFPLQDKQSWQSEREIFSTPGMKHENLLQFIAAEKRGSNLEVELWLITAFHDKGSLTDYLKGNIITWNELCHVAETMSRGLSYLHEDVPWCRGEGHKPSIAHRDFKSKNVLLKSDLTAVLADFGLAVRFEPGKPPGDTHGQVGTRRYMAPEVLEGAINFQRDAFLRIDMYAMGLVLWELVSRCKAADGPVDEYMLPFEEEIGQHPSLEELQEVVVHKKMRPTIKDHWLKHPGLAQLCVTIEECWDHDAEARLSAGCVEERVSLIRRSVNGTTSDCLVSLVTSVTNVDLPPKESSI

[16] = target: Serine/threonine-protein kinase mTOR (Homo sapiens, UniProt P42345); assay: Inhibition of mTOR
K562 [17] = assay: Downregulation of Bcr-Abl in human K562 cells; format: functional, cell-based
K562 [18] = assay: Degradation of actin in human K562 cells; format: functional, cell-based
[19] = Aqueous solubility at pH 7.4; format: physicochemical
HCT-116 [20] = assay: Antiproliferation activity against human HCT116 cells

## CN1CCN(c2ccc3onc(-c4cc(Cl)c(O)cc4O)c3c2)CC1
HCT-116 [1]
  IC50: 9400 nM
[2]
  IC50: 800 nM

## Oc1cc(O)c(-c2noc3ccc(NCCN4CCOCC4)cc23)cc1Cl
HCT-116 [1]
  IC50: 280 nM
SK-BR-3 [3]
  IC50: 370 nM
LNCaP [4]
  IC50: 170 nM
DU-145
  IC50: 290 nM
[5]
  IC50: 230 nM
SK-BR-3 [6]
  IC50: 330 nM
LNCaP [7]
  IC50: 330 nM
HCT-116 [8]
  IC50: 50 nM
[9]
  IC50: > 20000 nM
K562 [10]
  Activity: Active
[11]
  IC50: > 20000 nM
[12]
  IC50: > 20000 nM
[13]
  IC50: > 20000 nM
[14]
  IC50: > 20000 nM
[15]
  IC50: > 20000 nM
Activin receptor type-2B
  IC50: > 20000 nM
[16]
  IC50: > 20000 nM
K562 [17]
  Activity: Active
K562 [18]
  Activity: inactive

## Oc1ccc2c(-c3cc(Br)c(O)cc3O)noc2c1
SK-BR-3 [6]
  IC50: ≥ 20000 nM
[19]
  solubility: 4 µg/mL (≈ 12.4 µM)
HCT-116 [20]
  IC50: ≥ 20000 nM

## Oc1ccc2c(-c3cc(Cl)c(O)cc3O)noc2c1
[2]
  IC50: 60 nM

## Oc1ccc(-c2noc3cc(O)ccc23)c(O)c1
[2]
  IC50: 15200 nM

## Oc1cc(O)c(-c2noc3ccc(NCCN4CCOCC4)cc23)cc1Br
[2]
  IC50: 40 nM

## COc1ccc2c(-c3cc(Cl)c(OC)cc3OC)noc2c1
[2]
  IC50: > 20000 nM

## COc1cc(OC)c(-c2noc3ccc(NCCN4CCOCC4)cc23)cc1Cl
[2]
  IC50: > 20000 nM
